Usually IC50 stands for the concentration that gives 50% inhibition. Low readings indicate greater potency in that assay, high ones weaker potency in that assay.

Here are results for 34 compounds from patent US8084479B2, “Thiazole compounds and methods of use” (Amgen Inc., priority 2006, dated 2011).

The target of this experiment is PKBα (Homo sapiens, UniProt P31749). Briefly: PKB kinase assay (P33-labeled ATP, peptide substrate, filter plate). The experiment is classed as biochemical. As to conditions: PKBα enzyme (full length or kinase domain with pleckstrin domain deleted). An excerpt: The kinase assay for evaluating PKB activity comprises active PKB enzymes, a PKB specific substrate, and P^33-labeled ATP. […] The phosphorylated substrate was captured by a phosphocellulose membrane filter plate (MLLIPORE) and measured by a Wallac Microbeta liquid scintillation counter (Perkin Elmer).

Structures are written as SMILES.

Sequence of PKBα (P31749 118-480 limits assumed): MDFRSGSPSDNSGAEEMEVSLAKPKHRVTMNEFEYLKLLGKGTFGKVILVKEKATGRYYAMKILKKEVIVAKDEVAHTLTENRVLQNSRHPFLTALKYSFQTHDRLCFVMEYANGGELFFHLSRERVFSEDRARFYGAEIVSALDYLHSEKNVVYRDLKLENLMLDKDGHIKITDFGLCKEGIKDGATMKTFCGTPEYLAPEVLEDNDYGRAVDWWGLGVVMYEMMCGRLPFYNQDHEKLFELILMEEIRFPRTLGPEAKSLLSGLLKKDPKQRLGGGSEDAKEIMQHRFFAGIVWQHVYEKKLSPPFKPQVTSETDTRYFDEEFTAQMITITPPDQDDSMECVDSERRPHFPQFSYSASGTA

On to `N[C@H](CNc1nc(C2CCCO2)c(-c2ccc3cnccc3c2)s1)Cc1ccc(Cl)cc1` (stereo partly drawn) [Example 196, N—((S)-2-amino-3-(4-chlorophenyl)propyl)-5-(isoquinolin-6-yl)-4-(tetrahydrofuran-2-yl)thiazol-2-amine], for which the concentration for half-maximal inhibition (IC50) was 0.05 to 1 µM.
Under `N[C@H](CNc1nc(C2CCCO2)c(-c2ccc3c(c2)CC(=O)N3)s1)Cc1ccc(Cl)cc1` (stereo partly drawn) [Example 197, 5-(2-((S)-2-Amino-3-(4-chlorophenyl)propylamino)-4-(tetrahydrofuran-2-yl)thiazol-5-yl)indolin-2-one] stands 1 to 10 µM; under `N[C@H](CNc1nc(C2CCCO2)c(-c2ccc3cnccc3c2)s1)Cc1ccc(C(F)(F)F)cc1` (stereo partly drawn) [Example 198, N—((S)-2-Amino-3-(4-(trifluoromethyl)phenyl)propyl)-5-(isoquinolin-6-yl)-4-(tetrahydrofuran-2-yl)thiazol-2-amine], less than 0.05 µM; under `N[C@H](CNc1ncc(-c2ccc3c(c2)C2(CC2)C(=O)N3)s1)Cc1ccc(C(F)(F)F)cc1` [Example 199, 5′-(2-((S)-2-amino-3-(4-(trifluoromethyl)phenyl)propylamino)thiazol-5-yl)spiro[cyclopropane-1,3′-indol]-2′(1′H)-one], 0.05 to 1 µM.
For `C[C@@H](c1ccc(C(F)(F)F)cc1)[C@H](N)CNc1ncc(-c2ccc3c(c2)C2(CC2)C(=O)N3)s1` [Example 200, 5′-(2-((2S,3S)-2-amino-3-(4-(trifluoromethyl)phenyl)butylamino)thiazol-5-yl)spiro[cyclopropane-1,3′-indol]-2′(1′H)-one], the IC50 lay within 0.05 to 1 µM.
Under `N[C@H](CNc1ncc(-c2ccc3c(c2)CC(=O)N3)s1)Cc1ccc2ccccc2c1` [Example 201, 5-(2-((S)-2-amino-3-(naphthalen-2-yl)propylamino)thiazol-5-yl)indolin-2-one] stands 0.05 to 1 µM; under `N[C@H](CNc1ncc(-c2ccc3cnccc3c2)s1)Cc1ccc2ccccc2c1` [Example 202, N—((S)-2-amino-3-(naphthalen-2-yl)propyl)-5-(isoquinolin-6-yl)thiazol-2-amine], less than 0.05 µM.
As for `Cn1c(=O)[nH]c2ccc(-c3cnc(NC[C@@H](N)Cc4ccc5ccccc5c4)s3)cc21` [Example 203, 6-(2-((S)-2-amino-3-(naphthalen-2-yl)propylamino)thiazol-5-yl)-1-methyl-1H-benzo[d]imidazol-2(3H)-one], the concentration for half-maximal inhibition (IC50) is 0.05 to 1 µM.
`N[C@H](CNc1ncc(-c2ccc3[nH]c(=O)oc3c2)s1)Cc1ccc2ccccc2c1` [Example 204, 6-(2-((S)-2-amino-3-(naphthalen-2-yl)propylamino)thiazol-5-yl)benzo[d]oxazol-2(3H)-one] had a half-inhibitory concentration (IC50) of less than 0.05 µM.
Consider `COc1cc(C[C@H](N)CNc2ncc(-c3ccc4cnccc4c3)s2)ccc1C(F)(F)F` [Example 205, N—((S)-2-amino-3-(3-methoxy-4-(trifluoromethyl)phenyl)propyl)-5-(isoquinolin-6-yl)thiazol-2-amine], for which the IC50 is less than 0.05 µM.
The value for `COc1cc(C[C@H](N)CNc2ncc(-c3ccc4c(c3)CC(=O)N4)s2)ccc1C(F)(F)F` [Example 206, 5-(2-((S)-2-amino-3-(3-methoxy-4-(trifluoromethyl)phenyl)propylamino)thiazol-5-yl)indolin-2-one] was less than 0.05 µM.
The value for `COc1cc(C[C@H](N)CNc2ncc(-c3ccc4[nH]c(=O)oc4c3)s2)ccc1C(F)(F)F` [Example 207, 6-(2-((S)-2-amino-3-(3-methoxy-4-(trifluoromethyl)phenyl)propylamino)thiazol-5-yl)benzo[d]oxazol-2(3H)-one] was less than 0.05 µM; that for `N[C@H](CNc1ncc(-c2ccc3cnccc3c2)s1)Cc1ccc(C(F)(F)F)c(O)c1` [Example 208, 5-((S)-2-amino-3-(5-(isoquinolin-6-yl)thiazol-2-ylamino)propyl)-2-(trifluoromethyl)phenol] was less than 0.05 µM; that for `N[C@H](CNc1ncc(-c2ccc3c(c2)CC(=O)N3)s1)Cc1ccc(C(F)(F)F)c(O)c1` [Example 209, 5-(2-((S)-2-amino-3-(3-hydroxy-4-(trifluoromethyl)phenyl)propylamino)thiazol-5-yl)indolin-2-one] was 0.05 to 1 µM.
As to `N[C@H](CNc1ncc(-c2ccc3[nH]c(=O)oc3c2)s1)Cc1ccc(C(F)(F)F)c(O)c1` [Example 210], the IC50 was less than 0.05 µM.
As for `N[C@H](CNc1ncc(-c2ccc3cnccc3c2)s1)Cc1ccc(Cl)s1` [Example 211, N—((S)-2-amino-3-(5-chlorothiophen-2-yl)propyl)-5-(isoquinolin-6-yl)thiazol-2-amine], the IC50 is less than 0.05 µM.
Compound `N[C@H](CNc1ncc(-c2ccc3c(c2)CC(=O)N3)s1)Cc1ccc(Cl)s1` [Example 212, 5-(2-((S)-2-amino-3-(5-chlorothiophen-2-yl)propylamino)thiazol-5-yl)indolin-2-one] showed an IC50 of 0.05 to 1 µM.
In turn, `N[C@H](CNc1ncc(-c2ccc3[nH]c(=O)oc3c2)s1)Cc1ccc(Cl)s1` [Example 213, 6-(2-((S)-2-amino-3-(5-chlorothiophen-2-yl)propylamino)thiazol-5-yl)benzo[d]oxazol-2(3H)-one] gave an IC50 of 0.05 to 1 µM.
Under `N[C@H](CNc1ncc(-c2cc3c(cc2F)NC(=O)C3)s1)Cc1ccc(C(F)(F)F)cc1` [Example 214, 5-(2-((S)-2-amino-3-(4-(trifluoromethyl)phenyl)propylamino)thiazol-5-yl)-6-fluoroindolin-2-one] stands less than 0.05 µM; under `N[C@H](CNc1ncc(-c2cc3c(cc2F)NC(=O)C3)s1)Cc1ccc(C(F)(F)F)nc1` [Example 215, 5-(2-((S)-2-amino-3-(6-(trifluoromethyl)pyridin-3-yl)propylamino)thiazol-5-yl)-6-fluoroindolin-2-one], 0.05 to 1 µM; under `NC(CNc1ncc(-c2ccc3[nH]c(=O)oc3c2)s1)Cc1ccc(O)c(F)c1` (stereo not shown) [Example 216, 6-(2-(2-Amino-3-(3-fluoro-4-hydroxyphenyl)propylamino)thiazol-5-yl)benzo[d]oxazol-2(3H)-one], 0.05 to 1 µM.
Turning to `NC(CNc1ncc(-c2ccc3c(c2)CC(=O)N3)s1)Cc1ccc(O)c(F)c1` (stereo not shown) [Example 217, 5-(2-(2-Amino-3-(3-fluoro-4-hydroxyphenyl)propylamino)thiazol-5-yl)indolin-2-one], the IC50 fell in the range of 0.05 to 1 µM.
Compound `NC(CNc1ncc(-c2ccc3cnccc3c2)s1)Cc1ccc(O)c(F)c1` (stereo not shown) [Example 218, 4-(2-Amino-3-(5-(isoquinolin-6-yl)thiazol-2-ylamino)propyl)-2-fluorophenol] yielded a concentration for half-maximal inhibition (IC50) of less than 0.05 µM.
Regarding `N[C@H](CNc1ncc(-c2cc3oc(=O)[nH]c3cc2F)s1)Cc1ccc(C(F)(F)F)nc1` [Example 219, 6-(2-((S)-2-amino-3-(6-(trifluoromethyl)pyridin-3-yl)propylamino)thiazol-5-yl)-5-fluorobenzo[d]oxazol-2(3H)-one], the 50% inhibitory concentration (IC50) lay in the range of 0.05 to 1 µM.
Regarding `N[C@H](CNc1ncc(-c2cc(F)c3c(c2)CC(=O)N3)s1)Cc1ccc(C(F)(F)F)cc1` [Example 220, 5-(2-((S)-2-amino-3-(4-(trifluoromethyl)phenyl)propylamino)thiazol-5-yl)-7-fluoroindolin-2-one], the 50% inhibitory concentration (IC50) was less than 0.05 µM.
On to `N[C@H](CNc1ncc(-c2cc(F)c3c(c2)CC(=O)N3)s1)Cc1ccc(C(F)(F)F)nc1` [Example 221, 5-(2-((S)-2-amino-3-(6-(trifluoromethyl)pyridin-3-yl)propylamino)thiazol-5-yl)-7-fluoroindolin-2-one], for which the IC50 was less than 0.05 µM.
The value for `C[C@@H](c1ccc(C(F)(F)F)cc1)[C@H](N)CNc1ncc(-c2cc(F)c3c(c2)CC(=O)N3)s1` [Example 222, 5-(2-((2S,3S)-2-amino-3-(4-(trifluoromethyl)phenyl)butylamino)thiazol-5-yl)-7-fluoroindolin-2-one] was 0.05 to 1 µM; that for `N[C@H](CNc1ncc(-c2ccc3cnccc3c2)s1)Cc1ccc(NC(=O)OCc2ccccc2)cc1` [Example 223, Benzyl 4-((S)-2-amino-3-(5-(isoquinolin-6-yl)thiazol-2-ylamino)propyl)phenylcarbamate] was 1 to 10 µM.
Compound `N[C@H](CNc1ncc(-c2ccc3c(c2F)CC(=O)N3)s1)Cc1ccc(C(F)(F)F)cc1` [Example 224, 5-(2-((S)-2-amino-3-(4-(trifluoromethyl)phenyl)propylamino)thiazol-5-yl)-4-fluoroindolin-2-one] showed an IC50 of less than 0.05 µM.
In turn, `C[C@@H](c1ccc(C(F)(F)F)cc1)[C@H](N)CNc1ncc(-c2ccc3c(c2F)CC(=O)N3)s1` [Example 225, 5-(2-((2S,3S)-2-amino-3-(4-(trifluoromethyl)phenyl)butylamino)thiazol-5-yl)-4-fluoroindolin-2-one] came in with a 50% inhibitory concentration (IC50) of less than 0.05 µM.
In turn, `N[C@H](CNc1ncc(-c2cnc3c(c2)CC(=O)N3)s1)Cc1ccc(C(F)(F)F)cc1` [Example 226, 5-(2-((S)-2-amino-3-(4-(trifluoromethyl)phenyl)propylamino)thiazol-5-yl)-1H-pyrrolo[2,3-b]pyridin-2(3H)-one] gave an IC50 of less than 0.05 µM.
As for `N[C@H](CNc1ncc(-c2cnc3c(c2)CC(=O)N3)s1)Cc1ccc(C(F)(F)F)nc1` [Example 227, 5-(2-((S)-2-amino-3-(6-(trifluoromethyl)pyridin-3-yl)propylamino)thiazol-5-yl)-1H-pyrrolo[2,3-b]pyridin-2(3H)-one], the IC50 was in the range of 0.05 to 1 µM.
For the compound `C[C@@H](c1ccc(C(F)(F)F)cc1)[C@H](N)CNc1ncc(-c2cnc3c(c2)CC(=O)N3)s1` [Example 228, 5-(2-((2S,3S)-2-amino-3-(4-(trifluoromethyl)phenyl)butylamino)thiazol-5-yl)-1H-pyrrolo[2,3-b]pyridin-2(3H)-one], the IC50 lay within 0.05 to 1 µM.
Turning to `C[C@@H](Nc1ncc(-c2ccc3c(c2)CC(=O)N3)s1)[C@@H](N)Cc1ccc(C(F)(F)F)cc1` [Example 229, 5-(2-((2R,3S)-3-amino-4-(4-(trifluoromethyl)phenyl)butan-2-ylamino)thiazol-5-yl)indolin-2-one], the IC50 is less than 0.05 µM.
